The target of assay [1] is T1, human 1,5-anhydroglucitol/fructose/mannose transporter (human SMINT) (Homo sapiens, UniProt Q2M3M2).
T1 construct: expressed in transfected cells; host or cells: COS-7 cells (RIKEN CELL BANK RCB0539), transient lipofection of SMINT/pME18S-FL
T1 sequence (Q2M3M2 1-681): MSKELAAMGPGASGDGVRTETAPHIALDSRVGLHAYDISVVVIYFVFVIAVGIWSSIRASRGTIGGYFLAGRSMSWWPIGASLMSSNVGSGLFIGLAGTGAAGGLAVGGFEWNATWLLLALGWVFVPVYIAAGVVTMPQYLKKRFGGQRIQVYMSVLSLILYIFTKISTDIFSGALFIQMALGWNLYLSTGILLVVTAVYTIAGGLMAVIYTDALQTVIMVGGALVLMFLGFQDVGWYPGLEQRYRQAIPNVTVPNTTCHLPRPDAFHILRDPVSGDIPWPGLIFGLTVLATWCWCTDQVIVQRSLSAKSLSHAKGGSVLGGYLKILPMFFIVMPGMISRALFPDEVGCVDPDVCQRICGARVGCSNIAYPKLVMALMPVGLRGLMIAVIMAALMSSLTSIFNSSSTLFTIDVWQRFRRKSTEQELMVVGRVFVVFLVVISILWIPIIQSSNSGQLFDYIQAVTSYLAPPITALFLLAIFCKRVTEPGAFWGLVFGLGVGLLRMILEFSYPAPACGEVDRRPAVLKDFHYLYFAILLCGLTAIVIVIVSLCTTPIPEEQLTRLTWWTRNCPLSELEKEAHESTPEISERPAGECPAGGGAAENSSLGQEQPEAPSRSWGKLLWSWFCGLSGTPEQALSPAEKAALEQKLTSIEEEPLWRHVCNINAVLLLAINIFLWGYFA
The assay is described as follows: Confirmatory test for inhibitory activity on human 1,5-anhydroglucitol/fructose/mannose transporter (inhibition assay of methyl-α-D-glucopyranoside uptake activity). In kind it is cell-based. The settings on record: COS-7 cells transiently expressing human SMINT; uptake of 1 mM methyl-α-D-glucopyranoside (α-MG), 1 hour, 37° C.; logit plot analysis. Here is the method:
(§1) Human SMINT-carrying expression plasmid SMINT/pME18S-FL (denotation of bacteria: Escherichia coli/SMINT2010324), which was deposited with NITE Patent Microorganisms Depositary on Mar. 12, 2002, was transfected to COS-7 cells (RIKEN CELL BANK RCB0539) by lipofection method. LIPOFECTAMINE PLUS reagent (Invitrogen) was used as the lipofection reagent. A day before the lipofection, COS-7 cells were suspended in D-MEM medium (Invitrogen) at 6×10^6 cells per 1 mL, and dispensed 50 μL per well of 96-well plate. The lipofection was performed by the following methods. For each well, 0.1 μg of the plasmid was diluted with 10 μL of D-MEM, added 0.5 μL of PLUS reagent, mixed gently, and kept stand for 15 minutes to prepare Plasmid Dilute Solution. For each well, 0.5 μL of LIPOFECTAMINE reagent was diluted with 10 μL of D-MEM to prepare LIPOFECTAMINE Dilute Solution. The Plasmid Dilute Solution was mixed with an equal volume of the LIPOFECTAMINE Dilute Solution, kept stand for 15 minutes, dispensed 20 μL per well of cell culture medium, and incubated at 37° C. under 5% CO2 for 5 hours. Then D-MEM containing 16.7% fetal bovine serum (Sanko Jun-yaku) was dispensed 100 μL per well. After 2 days culture, the cells were used for the inhibition assay of methyl-α-D-glucopyranoside uptake activity.
Confirmatory Test for Inhibitory Activity on Human 1,5-anhydroglucitol/fructose/mannose Transporter
(§2) 1) Preparation of Cells Transiently Expressing Human SMINT
The cells were prepared according to the method described in 1) of Test Example 2.
2) Inhibition Assay of methyl-α-D-glucopyranoside Uptake Activity
(§3) To Uptake Buffer consisting of 140 mM sodium chloride, 2 mM potassium chloride, 1 mM calcium chloride, 1 mM magnesium chloride, 10 mM 2-[2-(2-hydroxyethyl)-1-piperazinyl]-ethanesulfonic acid, and 5 mM tris(hydroxymethyl)aminomethane (pH 7.4), was added methyl-α-D-glucopyranoside (α-MG) composed of its non-radiolabeled form and ^14C-labeled form at 1 mM as the final concentration. For measurement of basal uptake, Basal Buffer was prepared by the addition of 140 mM choline chloride instead of sodium chloride of the Uptake Buffer. In order to determine the substrate specificity among natural sugars, natural sugars were solubilized in distilled water, diluted with distilled water into appropriate concentrations, and added to the Uptake Buffer to prepare Assay Buffer. […] To the cell lysates were added 150 μL per well of MicroScint 40 (Packard), mixed well, and the radioactivity was measured in a microscintillation counter TOPCOUNT (Packard). α-MG uptake by the cells treated with each concentration of test compounds was calculated as relative activity to control group, which is set as 100% uptake after deducting the basal uptake. […]

Another assay addresses T2, human SMINT (Homo sapiens, UniProt Q2M3M2).
T2 construct: expressed in transfected cells; host or cells: COS-7 cells (RIKEN CELL BANK RCB0539), transient lipofection of SMINT/pME18S-FL
T2 sequence (Q2M3M2 1-681): T1 sequence (Q2M3M2 1-681)
Description: Confirmatory test for substrate specificity of human SMINT (inhibition assay of methyl-α-D-glucopyranoside uptake activity with natural sugars). In kind it is cell-based. The settings on record: COS-7 cells transiently expressing human SMINT; 1 mM α-MG, 1 hour, 37° C.
Description: Confirmatory Test for Substrate Specificity of Human SMINT
as §2
as §1, with “After 2 days culture, the cells were used for the inhibition assay of methyl-α-D-glucopyranoside uptake activity.” left out
as §3, with “concentration.” for “concentration. For measurement of basal uptake, Basal Buffer was prepared by the addition of 140 mM choline chloride instead of sodium chloride of the Uptake Buffer. In order to determine the substrate specificity among natural sugars, natural sugars were solubilized in distilled water, diluted with distilled water into appropriate concentrations, and added to the Uptake Buffer to prepare Assay Buffer.”

Consider `COc1ccc(Cc2c(O[C@@H]3O[C@H](CO)[C@@H](O)[C@H](O)[C@H]3O)nn(C(C)C)c2-c2ccc(OC)cc2)cc1` [Example 1], for which the IC50 in assay [1] came out at 0.092 µM.

For `COc1ccc(Cc2c(O[C@@H]3O[C@H](CO)[C@@H](O)[C@H](O)[C@H]3O)nn(-c3ccccc3F)c2C(C)C)cc1` [Example 99], the IC50 in assay [1] amounted to 0.245 µM.

`COc1ccc(Cc2c(O[C@@H]3O[C@H](CO)[C@@H](O)[C@H](O)[C@H]3O)nn(C(C)C)c2-c2ccc3c(c2)OCCO3)cc1` [Example 119] had an IC50 in assay [1] of 0.296 µM.

As to `CC(C)c1c(Cc2ccccc2)c(O[C@@H]2O[C@H](CO)[C@@H](O)[C@H](O)[C@H]2O)nn1C(C)C` [Example 87, 4-Benzyl-3-(β-D-glucopyranosyloxy)-1,5-diisopropyl-1H-pyrazole], the IC50 in assay [1] came to 0.444 µM.

On to `OC[C@H]1OC[C@H](O)[C@@H](O)[C@@H]1O` [1,5-anhydroglucitol], for which, at human SMINT, the “recognition as substrate by SMINT (inhibition of α-MG uptake, FIG. 2)” value was “recognizes”.

On to `O=C[C@H](O)[C@@H](O)[C@@H](O)[C@H](O)CO` [galactose], for which the “recognition as substrate by SMINT (inhibition of α-MG uptake, FIG. 2)” value at human SMINT is on record as “not”.

As to `O=C(CO)[C@@H](O)[C@H](O)[C@H](O)CO` [fructose], the “recognition as substrate by SMINT (inhibition of α-MG uptake, FIG. 2)” value on human SMINT is on record as “recognizes”.

What is called IC50 is the midpoint of a concentration-inhibition curve.

The values above are taken from patent US7888487B2, “Pyrazole derivative, medicinal composition containing the same, medicinal use thereof and intermediate in producing the same” (Kissei Pharmaceutical Co., Ltd., priority 2002, dated 2011).
